# Measured values from ChEMBL document CHEMBL1201862, “PubChem BioAssay data set” (2004).
#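 Five compound concentrations were applied to cells in 96-well plates for 48 hours; endpoints were derived by simple linear interpolation of the resulting dose-response curve. GI50 marks 50% less growth.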 Active and inactive are the calls of the source. No stated cut-off is given here; in the data, active = GI50 up to about 1.1 µM and inactive = higher.
# Key:
# Assay in all cases: inhibition of tumour cell growth, NCI panel, 48 h
# NCI/ADR-RES = system: NCI/ADR-RES
# BT-549 = system: BT-549
# RXF 631 = system: RXF 631
# DMS-114 = system: DMS-114
# DMS-273 = system: DMS-273
# LXFL 529 = system: LXFL 529
# XF498 = system: XF498
# HOP-18 = system: HOP-18
# SNB-78 = system: SNB-78
Structure (SMILES),GI50 (NCI/ADR-RES),GI50 (BT-549),GI50 (RXF 631),GI50 (DMS-114),GI50 (DMS-273),GI50 (LXFL 529),GI50 (XF498),GI50 (HOP-18),GI50 (SNB-78)
Cc1cccc(C)c1NC(=O)Nc1ccc(S(N)(=O)=O)cc1,> 100 µM (inactive),> 100 µM (inactive),–,–,–,–,–,–,–
CCOC(=O)C(=O)NC12CC3CC(CC(C3)C1)C2,–,–,> 100 µM (inactive),> 100 µM (inactive),> 100 µM (inactive),> 100 µM (inactive),> 100 µM (inactive),> 100 µM (inactive),–
c1ccc(OCc2nnc(CCCCCCCCc3nnc(COc4ccccc4)o3)o2)cc1,> 100 µM (inactive),> 100 µM (inactive),–,–,–,–,–,–,–
CN1C(=O)CC(=O)N1/C(=C/c1ccccc1)c1ccccc1,> 100 µM (inactive),> 100 µM (inactive),–,–,–,–,–,–,–
CN(C)CCNC(=O)c1cc(Cl)cc2cc3ccccc3nc12,0.766 µM (active),–,–,0.792 µM (active),0.733 µM (active),–,0.966 µM (active),6.44 µM (inactive),1.97 µM (inactive)
O=C(OCc1ccccc1)OOC(=O)OCc1ccccc1,–,–,–,> 100 µM (inactive),–,> 100 µM (inactive),–,–,> 100 µM (inactive)
C=C1C[C@@H](O)C[C@@]2(C)C[C@@H]3OC(=O)C(=C)[C@@H]3C[C@H]12,6.55 µM (inactive),–,–,8.73 µM (inactive),5.35 µM (inactive),–,0.678 µM (active),3.98 µM (inactive),7.69 µM (inactive)
COC(=O)C1C(O)C(C)C(O)C(C)(O)/C=C\C=C(C)C(=O)Nc2c(C)c(OC(C)=O)c3c(c2O)C(=O)C(C)=C2OCOC(=C23)C(C)=CC(C)(O)C(O)C(C)C1OC(C)=O (configuration not stated),> 100 µM (inactive),–,–,16.1 µM (inactive),44 µM (inactive),–,–,93.1 µM (inactive),44.6 µM (inactive)
CC[C@H]1CN2CCc3cc(OC)c(OC)cc3[C@@H]2C[C@@H]1C[C@H]1NCCc2cc(O)c(OC)cc21,0.543 µM (active),–,–,0.025 µM (active),0.0344 µM (active),–,–,–,–
COC(=O)C(=O)OC1(C(C)=O)CC2(c3ccccc3)OC1(c1ccccc1)c1ccccc12 (configuration not stated),–,–,23.1 µM (inactive),15.1 µM (inactive),15.2 µM (inactive),19.8 µM (inactive),16.4 µM (inactive),52.8 µM (inactive),27.8 µM (inactive)
COc1ccc(C(=C2C(=O)N(c3ccccc3)C(=O)C2=C(C)C)c2ccc(OC)cc2)cc1,2.57 µM (inactive),12.4 µM (inactive),–,–,–,–,–,–,–
N/N=C(\C(=O)Nc1c(Cl)cc([N+](=O)[O-])cc1Cl)C(c1cnc2ccc([N+](=O)[O-])cc2n1)[N+](=O)[O-] (configuration not stated),–,–,–,36.3 µM (inactive),38.6 µM (inactive),–,> 100 µM (inactive),–,40.4 µM (inactive)
CN(C)C(=O)C(F)(F)C(c1ccc(Br)cc1)C1C(=O)N(C)C(=O)N(C)C1=O (configuration not stated),> 100 µM (inactive),> 100 µM (inactive),–,–,–,–,–,–,–
O=C1C=C/C(=C/[C@H]2SSC=C[C@]23C=CC(=O)C3)C1,23.8 µM (inactive),18.9 µM (inactive),–,–,–,–,–,–,–
Cc1ccc(C(=O)Cc2nc3c([nH]c2=O)c(C)nn3-c2ccccc2)c(C)c1,6.53 µM (inactive),> 10 µM (inactive),–,–,–,–,–,–,–
COc1ccc(/C=C2\C[C@H]3[C@@H]4CCC5=C/C(=N/O)CC[C@]5(C)[C@H]4CC[C@]3(C)\C2=N\O)cc1OC,26.4 µM (inactive),57.8 µM (inactive),–,–,–,–,–,–,–
COc1ccc(C(=O)Nc2ccc(O)c(=O)cc2)cc1,42.3 µM (inactive),38.5 µM (inactive),–,–,–,–,–,–,–
CCOC(=O)C1=NN(c2ccc(Cl)cc2)C2=CC(C)=NN(C)C(=S)N21,65 µM (inactive),–,–,–,–,–,–,–,–
CCOC(=O)CNC(=O)NC12CC3CC(CC(C3)C1)C2,305 µM (inactive),–,–,179 µM (inactive),223 µM (inactive),–,22.1 µM (inactive),161 µM (inactive),221 µM (inactive)
CC(=C(c1ccccc1)c1ccccc1)N1C(=O)CC(=O)N1C,> 100 µM (inactive),34.8 µM (inactive),–,–,–,–,–,–,–
COc1c2c(cc3c(CCc4ccccc4)cc(=O)oc13)CCC(C)(C)O2,–,–,–,> 100 µM (inactive),> 100 µM (inactive),> 100 µM (inactive),–,–,–
COc1cccc(N2C(=O)CSC2c2cccc(Oc3ccccc3)c2)c1 (configuration not stated),3.61 µM (inactive),12.3 µM (inactive),–,–,–,–,–,–,–
Cc1ccnc2nc(N)ccc12,> 100 µM (inactive),> 100 µM (inactive),–,–,–,–,–,–,–
C=CCc1cccc2cc(C(=O)Nc3ccc(C)cc3)c(=N)oc12,> 100 µM (inactive),> 100 µM (inactive),–,–,–,–,–,–,–
COc1ccc(/C(Cl)=C(\C=O)c2ccc(F)cc2)cc1,–,–,19.8 µM (inactive),7.55 µM (inactive),14.9 µM (inactive),6.27 µM (inactive),–,6.58 µM (inactive),7.53 µM (inactive)
C/C(=N\OCC(O)CNCCSCc1ccccc1)c1ccccc1Cl (configuration not stated),19.1 µM (inactive),–,–,–,–,–,–,–,–
CCCCCCSc1nc(N)nc2nc[nH]c12,37.5 µM (inactive),–,–,–,43.7 µM (inactive),–,32.5 µM (inactive),–,38.5 µM (inactive)
